Data: patent US10933141B2, “Formulations with reduced degradation of polysorbate” (Genentech, Inc., priority 2015, dated 2021)
“Also recorded” adds a separate entry of the source.

Experiments:
[1] = biological target: T1, porcine pancreatic lipase (PPL) (Sus scrofa, UniProt P00591); experiment: Enzymatic degradation of PS20 by PPL, 4.5 hour digestion, PS20 by RP-ELSD; type: biochemical; details: 0.02% PS20; 15 μg/mL PPL 4.5 hours; excipient 15% w/v (methionine 10 mg/mL)
T1 construct: purchased Sigma Aldrich Inc. (St. Louis, Mo.)
T1 sequence (P00591 1-450): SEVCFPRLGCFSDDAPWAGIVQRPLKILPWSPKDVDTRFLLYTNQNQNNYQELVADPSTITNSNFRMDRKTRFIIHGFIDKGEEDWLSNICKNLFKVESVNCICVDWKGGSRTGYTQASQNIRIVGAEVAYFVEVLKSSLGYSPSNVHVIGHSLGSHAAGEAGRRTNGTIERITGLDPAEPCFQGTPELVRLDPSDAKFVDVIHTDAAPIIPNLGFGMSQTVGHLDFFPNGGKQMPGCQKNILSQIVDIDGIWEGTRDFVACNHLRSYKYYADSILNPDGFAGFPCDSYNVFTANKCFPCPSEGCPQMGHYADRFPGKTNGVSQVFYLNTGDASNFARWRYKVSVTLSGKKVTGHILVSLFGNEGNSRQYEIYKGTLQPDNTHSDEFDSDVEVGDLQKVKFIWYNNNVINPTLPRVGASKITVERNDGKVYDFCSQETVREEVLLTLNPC
Experimental: Polysorbate concentration was determined using reverse phase ultra-performance liquid chromatography using evaporative light scattering detection (RP-ELSD). Samples were analyzed using an Agilent 1100 series high performance liquid chromatography system (HPLC) fitted with a Waters Oasis MAX cartridge column (20×2.1 mm, 30 μm particle size). The HPLC system was set up with a switching valve directing column flow-through to either waste or a Varian 380-LC evaporative light scattering detector set to 100° C. The mobile phases consisted of 2% formic acid in water (Pump A) and 2% formic acid in isopropanol (Pump B). The pump gradient was isocratic at 10% pump B during equilibration, linear to 20% pump B for 1 minute, isocratic at 20% pump B for 2.4 minutes, linear to 100% pump B for 0.1 minutes, isocratic at 100% pump B for 1.1 minutes, linear to 10% pump B for 0.1 minutes, and finally isocratic at 10% pump B for 1.9 minutes. The switching valve directed column flow-through to waste at the beginning of every injection, and then directed flow to the detector after 2.4 minutes until the end of the gradient. In order to quantitate the PS20 concentration, a standard curve was generated by injecting 20 μL of solutions containing between 0% w/v and 0.4% w/v PS20.
(§1) Several excipients were tested for their ability to protect PS20 against enzymatic hydrolysis including HP-α-CD, HP-β-CD, HP-γ-CD, SBE-β-CD, PVP, PEG 1500, sucrose, and methionine. Solutions of each excipient in pH 5.5 buffer were prepared containing a final concentration of 0.02% PS20 after enzyme addition. The concentration of HP-α-CD, HP-β-CD, HP-γ-CD, and SBE-β-CD in the excipient solutions was 106 mM. […] The remaining excipients (PVP, PEG 1500, sucrose) were added to 15% w/v to match the % w/v of HP-β-CD. Samples were digested with 15 μg/mL PPL enzyme for 4.5 hours at room temperature, followed by 30 minutes of heat inactivation at 85° C. Each sample was analyzed for PS20 concentration using high performance liquid chromatography with an inline evaporative light scattering detector. Samples were then placed at 5° C. overnight to allow for the formation of particles and were analyzed for visible and subvisible particles as described previously.
(§2) The effect of the HP-β-CD concentration at different PS20 concentrations on the enzymatic degradation of PS20 was assessed to identify optimal concentrations for inhibition of enzymatic PS20 degradation. To evaluate the dependence of PS20 degradation on HP-β-CD concentration, the PS20 content was determined using RP-ELSD for triplicate samples containing different HP-β-CD concentrations at various PS20 concentrations. Samples containing 0.005% (FIG. 14A), 0.02% (FIG. 14B), 0.1% (FIG. 14C), and 0.4% PS20 (FIG. 14D) were digested using 15 μg/mL of PPL enzyme for 4.5 hours at room temperature in protein-free samples containing no excipient (control), 0, 0.5, 5, and 15% (w/v) HP-β-CD. PPL was added to each of the treatment solutions at a ratio of 75 […], with an equivalent volume of buffer added to the control solutions to determine the effect of HP-β-CD to polysorbate ratio on enzymatic degradation. Digestion was stopped by heat inactivation in an 85° C. water bath for 30 minutes. Each sample was analyzed for PS20 concentration using high performance liquid chromatography with an inline evaporative light scattering detector as described above. Samples were then placed at 5° C. overnight to allow for the formation of particles and placed on ice during analysis for visible and subvisible particles as described above.

[2] = biological target: T1, porcine pancreatic lipase (PPL); experiment: Subvisible particle formation after PPL digestion of PS20 (HIAC); type: physicochemical; details: 0.02% PS20; 15 μg/mL PPL 4.5 hours, then 5° C. overnight; excipient 15% w/v (methionine 10 mg/mL)
Experimental: Subvisible particles were measured using a HIAC 9703 particle counter equipped with an HRDL-150 detector and a 1 mL syringe. Performance of the instrument was verified with NIST-traceable 2 μm Polystyrene bead standards at 3000 counts/mL before each measurement session. The HIAC instrument was configured to a 10 mL/min flow rate, 0.1 mL tare volume, and 0.4 mL sample volume. The samples were analyzed using 4 runs of 0.4 mL sips, with the first run of each sample was discarded to prevent measurement error due to sample carryover. Results were reported as the average values for 1.4, 2, 5, 10, 15, and 25, 50 μm analysis filter sizes.
as §1, §2

Row | Compound | inhibitory effect on enzymatic PS20 degradation (in words) [1] | effect on SVP formation (in words) [2]
1 | CSCC[C@H](N)C(=O)O [methionine, reference compound] | did not have an inhibitory effect | did not have an inhibitory effect
2 | sulfobutyl ether β-cyclodextrin [SBE-β-CD] | significant inhibitory effects; also recorded: able to prevent enzymatic degradation of PS20 | significant inhibitory effects
